Structures can show the parent of a compound that is named as a salt. Where two headings read alike, the source gives them in different places.
Columns and labels:
[1] = system: GADD45a gene; settings: published fragrance safety assessment; cited from earlier work
[2] = system: mammalian cell; assay: In vitro mammalian cell micronucleus test; assay type: cell-based; settings: overall outcome in current dataset
[3] = weight of evidence of all available in vitro and in vivo data
[4] = system: human peripheral lymphocytes; settings: cited from earlier work
[5] = system: mouse; settings: cited from earlier work
[6] = system: GADD45a gene; assay: BlueScreen HC assay; settings: fragrance materials, TK6 cells
[7] = system: Salmonella typhimurium, Escherichia coli tester strains; assay: Bacterial reverse mutation test; assay type: cell-based; settings: overall outcome
[8] = system: Salmonella typhimurium, Escherichia coli tester strains; settings: cited from earlier work
[9] = system: L5178 TK +/− cell; settings: cited from earlier work
[10] = system: Chinese hamster V79 cells; settings: cited from earlier work
[11] = cited from earlier work
[12] = system: Chinese hamster lung, ovary, or fibroblast cells; settings: ref RIFM Database, cited from earlier work; for chromosomal aberration assay result: Chinese hamster lung, ovary, or fibroblast cells
[13] = system: reconstructed skin (EpiDerm™); settings: cited from earlier work
[14] = system: mice; settings: cited from earlier work

CCCCCCC(OCC)OCC [1,1-diethoxyheptane]
BlueScreen HC result [1]: negative

CC12CCCC(C)(CC1)C2=NO [1,5-dimethylbicyclo[3.2.1]octan-8-one-oxime]
in vitro MNT result [2]: positive | genotoxic potential conclusion (WoE) [3]: not genotoxic | in vitro micronucleus assay result ([4]; 3- and 24- h time points with and without metabolic activation): Positive | in vivo micronucleus test result [5]: negative | BlueScreen HC result [6]: negative

CC(=O)C1CC(C)=CC(C)C1C (stereo not shown) [1-(3,5,6-trimethyl-3-cyclohexen-1-yl)ethan-1-one]
Ames assay result [7]: positive | Ames assay result ([8]; Escherichia coli strain WP2uvrA without metabolic activation): positive | Ames assay result, third confirmatory study ([8]; similar concentrations, E. coli WP2uvrA or TA102): no positive effects | genotoxic potential conclusion (WoE) [3]: unlikely to have genotoxic potential in vivo | in vitro micronucleus assay result [4]: negative | mammalian cell line mutagenicity study (HPRT) result [9]: negative | BlueScreen HC result [6]: negative

CC(=CC#N)CCc1ccccc1 [3-methyl-5-phenylpent-2-enenitrile]
in vitro MNT result [2]: positive | genotoxic potential conclusion (WoE) [3]: not genotoxic | in vitro micronucleus assay result ([10]; 4-h time point with metabolic activation): Positive | in vivo micronucleus test result [5]: negative | BlueScreen HC result [6]: negative

CC(C)C12CCC(C)(O)C1C2 (stereo not shown) [4-thujanol]
in vitro MNT result [2]: positive | in vitro micronucleus study result ([4]; 4-h time point, absence of metabolic activation): positive | in vivo micronucleus study result [5]: negative | BlueScreen HC result [6]: negative

Cc1cccc2nccnc12 [5-methylquinoxaline]
in vitro MNT result [2]: positive | genotoxic potential conclusion (WoE) [3]: devoid of genotoxic activity in vivo | in vitro micronucleus study result ([4]; 4-h treatment): negative | in vitro micronucleus study result ([4]; without metabolic activation, 24-h treatment): positive | in vivo micronucleus assays result ([11]; two assays): negative | BlueScreen HC result [6]: negative

CC(C)C(=O)O [Isobutyric acid]
Ames test result [8]: negative

COc1ccc(COC=O)cc1 [anisyl formate]
in vitro micronucleus assay result [4]: negative | mammalian cell line mutagenicity study (MLA/HPRT) result [9]: negative | BlueScreen HC result [6]: negative

N#C/C=C/c1ccccc1 [cinnamyl nitrile, Cinnamyl nitrile]
genotoxic potential conclusion (WoE) [3]: lack genotoxic potential in vivo | in vitro micronucleus result ([10]; Chinese hamster V79 cells): negative | chromosomal aberration assay result [12]: positive | BlueScreen HC result [6]: negative

COC1CC2CCC1(C)C2(C)C (stereo not shown) [isobornyl methyl ether]
in vitro MNT result [2]: positive | in vitro micronucleus confirmatory assay result ([4]; confirmatory assay, dose response not observed): increases only at the highest dose level | in vitro micronucleus study result ([4]; presence of metabolic activation, 4-h time point): positive | 3D skin micronucleus study result [13]: negative | BlueScreen HC result [6]: negative

CC(C)CO [isobutyl alcohol]
in vivo micronucleus test result [11]: negative

COC(=O)CC(C)=O [methyl acetoacetate, Methyl acetoacetate]
genotoxic potential conclusion (WoE) [3]: lack genotoxic potential in vivo | in vitro micronucleus result ([4]; human lymphocytes): negative | chromosomal aberration assay result [12]: positive | BlueScreen HC result [6]: negative

COC(=O)c1ccccc1N [methyl anthranilate, Methyl anthranilate]
in vitro chromosomal aberration study result ([12]; Chinese hamster fibroblast cell line (B 241)): positive | chromosomal aberration assay result [12]: positive | 2-year in vivo carcinogenicity study result [14]: did not show any carcinogenic effects | BlueScreen HC result [6]: negative

CC(=O)/C=C/C1C(C)=CCCC1(C)C (stereo not drawn) [α-ionone, α-Ionone]
genotoxic potential conclusion (WoE) [3]: lack genotoxic potential in vivo | in vitro micronucleus study result ([4]; human peripheral lymphocytes): negative | chromosomal aberration assay result [12]: positive | in vivo mouse micronucleus study result [5]: negative | BlueScreen HC result [6]: negative

Source: publication PMC8976226 (Mutagenesis, 2022)
